These results are taken from US10869884B2, “Cyclodextrin based polymers, methods, compositions and applications thereof” (ATEN PORUS LIFESCIENCES, priority 2016, dated 2020).

Assay type in all cases: in vivo, BALB/c mice
Data set [1] can be described thus: Body weight in the Adriamycin nephropathy (FSGS) dose response/frequency study. Conditions: ADR mice, 40 mg/kg/day s.c., 10 weeks, compared to normal mice. The protocol: (§1) Experimental Protocol: 6 animals (BALB/c mice) per group of 6-7 weeks of age were used. Nephropathy was induced in all animals, except group 1 (normal control), with Adriamycin (ADR, 11 mg/kg, i.v., single dose) at dose volume of 6 ml/kg. Normal saline (0.9%) was used as vehicle for the reference and test compounds. Treatment was started 24 hours after Adriamycin injection. Groups of animals (n=6) were treated subcutaneously with vehicle, HBCD, Polymer A and Polymer B at the doses and regimens shown in FIG. 10, for 10 weeks. At the end of the study, animals were sacrificed by CO2 exposure, blood samples and kidneys were collected for the estimation of various biomarkers in serum.
Body weights: Body weights were measured at the beginning of study and weekly throughout for ten weeks (FIG. 11) to provide a general assessment of rodent health after therapy.

Data set [2] deals with ADR-induced nephropathy. Description: Serum blood urea nitrogen (BUN) in the Adriamycin nephropathy (FSGS) model. The following applies: ADR mice, 40 mg/kg/day s.c., end of study. The protocol:
as §1
Serum Analysis: Serum samples were analysed in an Automated Clinical Chemistry Analyzer EM360, Transasia Bio-medicals Ltd, for albumin and creatinine. • (a) Blood Urea Nitrogen (BUN) assay to assess the level of kidney function was analysed by the GLDH Urease method using an Erba standard BUN kit. (FIG. 13). Administration of ADR to induce nephropathy increased blood urea nitrogen levels as one would expect from an impaired kidney. […] The combination of data from these studies serves to illustrate the potential of the polymers of the present disclosure as treatment options for kidney disease compared to known cholesterol clearance compounds.

The test system of data set [3] is ADR-induced nephropathy. Briefly: Kidney histopathology (H/E and PAS staining, mesangial expansion) in the Adriamycin nephropathy model. The following applies: ADR mice, 40 mg/kg/day s.c. (group 3), 10 weeks. The protocol: as §1
Histopathology: At the end of the study, kidney samples were collected from each animal, fixed in 10% NBF (Neutral Buffered […]) and subjected to histopathology. Periodic acid-Schiff (PAS) or Hematoxylin and Eosin (H/E) staining of 4 micron-thick tissue sections was performed according to the standard protocols. Mesangial expansion area was determined based on the area of PAS staining.

hydroxypropyl β-cyclodextrin [HBCD]: the mean body weight result in data set [1] was “largest drop in mean body weight without any substantial rebound”. For the same substance, the “serum blood urea nitrogen (BUN) level” value in the data set with ADR-induced nephropathy [2] is “BUN levels return to that found for the control group”. In addition, in the data set on ADR-induced nephropathy [3], the “kidney histopathology (glomeruli appearance)” value is “glomeruli that are normal in appearance”.
